# Patent US10744127B2, “MDR-reversing 8-hydroxy-quinoline derivatives” (MAGYAR TUDOMÁNYOS AKADÉMIA TERMÉSZETTUDOMÁNYI KUTATÓKÖZPONT, priority 2016, dated 2020)
# Read-outs that look alike come from different tables or passages of the source.
# Assays:
# [1] = system: MES-SA/Dx5 cell line; experiment: Cytotoxicity, PrestoBlue cell viability assay, MES-SA/Dx5; format: cell-based; details: Homo sapiens
# Protocol: (§1) The human uterine sarcoma cell line MES-SA and its doxorubicin resistant counterpart MES-SA/Dx5 were obtained from ATCC (MES-SA: No. CRL-1976™, MES-SA-Dx5: No. CRL-1977™). MES-SA/Dx5 cells express high levels of P-gp, and therefore are multidrug resistant (MDR). Cells were cultured in DMEM supplemented with 10% FBS, 5 mmol/L glutamine and 50 unit/mL penicillin and streptomycin (Life Technologies).
# (§2) Cell survival was measured by the PrestoBlue® Cell Viability Reagent (Life Technologies, USA). Cells were seeded in 100 μl medium at a density of 5000 cells/well in 96-well plates; the serially diluted drug was added the following day. Cells were then incubated for 72 hours at 37° C. in 5% CO2; the drug containing medium was removed, and the PrestoBlue® reagent was added according to the manufacturer's instructions. Fluorescence of the cells was measured by a Perkin Elmer EnSpire multimode plate reader or Perkin Elmer Victor X3 microplate reader. Data were background corrected and normalized to untreated cells. Curves were fitted with the help of Prism software using the sigmoidal dose-response model. Curve fit statistics were used to determine IC50 values. Differences between the IC50 values of the respective cell lines were analyzed by two-sided […] unpaired Student's t test and results were considered statistically significant at a P value of <0.05 (*) or 0.01 (**).
# [2] = system: MES-SA cell line; experiment: Cytotoxicity, PrestoBlue cell viability assay, parental MES-SA; format: cell-based; details: Homo sapiens; parental MES-SA cell line (Table 2a)
# Protocol: as §1, §2
# [3] = system: MES-SA and multidrug-resistant MES-SA/Dx5 cell line; experiment: Selective toxicity (ratio of IC50 in MES-SA to IC50 in MES-SA/Dx5) and activity index; format: cell-based, human
# Source text: Compounds having P-gp potentiated MDR-selective activity can be characterized by their inhibitory concentration (IC) with regard to a specific cancer cell line. Usually the IC value is given at a certain percentage ratio of non-inhibited molecules or surviving cells. For example an IC20 value of a compound on a cell line means that at this inhibitory concentration of the compound 80% of the cells are killed whereas 20% of the cells are still viable. A further characteristic of MDR-selective drugs is the selectivity ratio (SR), which is the ratio of the IC value measured in a non-multidrug resistant cell line to (i.e. divided by) the IC value measured in the corresponding transformed, multidrug-resistant cell line. The inverse value, the resistance ratio (RR) is calculated as the ratio of a compound's IC value against a multidrug resistant cell line divided by the parallel IC value of the same compound against a control non-multidrug resistant cell line. The Activity Index (AI) is calculated here as the ratio of the compound's selectivity ratio (SR) and the compound's IC50 value against the resistant cell. The AI reflects the level of simultaneous toxicity and selectivity towards multidrug-resistant cancer cells.
# as §1, §2
# Selectivity towards multidrug-resistant cells is expressed as the ratio of the IC50 value measured in the parental MES-SA and multidrug-resistant MES-SA/Dx5 cell line (Selectivity Ratio, SR).
# A novel characteristic of the compounds presented in this invention is that they exert their selective cytotoxicity at low IC50 values. Simultaneous toxicity and selectivity towards multidrug-resistant cancer cells is reflected by the Activity Index (AI) of the compounds, which is the ratio of the selectivity ratio (SR) and the IC50 value on the resistant cell line.
# [4] = system: MDCK II and MDCK II B1 cell lines; experiment: Selective toxicity towards MDCK II and MDCK II B1 cell lines; format: cell-based, canine; details: MDCK II versus MDCK II B1
# Protocol: as §2
# (§3) Data on selective toxicity (expressed as Selectivity Ratio, SR) in two MDR models engineered by retroviral transfection of P-glycoprotein (A431/A431-B1 and MDCK II/MDCK II B1 cell lines) are presented in Table 3 and Table 4.
# (§4) A431 is a human epidermoid carcinoma cell line. Its derivative, the A431-B1 cell line expresses P-gp due to retroviral transfection of the mdr1 gene Türk, D. et al (Türk, D. et al., 2009). MDCK II is a canine kidney cell line. MDCK II B1 was created by inserting the mdr1 gene with transposons [Pape V F S et al. 2015] Both cell express P-gp stably, and show a stable MDR phenotype. Culture conditions were identical as in the case of MES-SA cells.
# [5] = system: MES-SA and MES-SA/Dx5 cells; experiment: Selective toxicity in the presence of the P-gp inhibitor tariquidar; format: cell-based, human; details: for SR (TQ): selectivity ratio in the presence of tariquidar (1 μM)
# Protocol: In the presence of tariquidar (an inhibitor of P-gp function), the toxicity of the compounds selectively diminishes in multidrug-resistant MES-SA/Dx5 cells, while the toxicity is unchanged against parental MESSA cells, which is reflected by a decrease in the selectivity ratio (SR (TQ)).
# To investigate the contribution of P-glycoprotein to the cytotoxic effect of a compound, cell survival was measured in the presence of the P-glycoprotein inhibitor tariquidar (1 μM). Tariquidar (CAS 206873-63-4) can be obtained e.g. from Selleck, Houston, USA.
# [6] = system: P-gp-expressing MES-SA/Dx5 cells; experiment: P-gp switch assay (Calcein AM); format: cell-based, human; details: for Fraction of P-gp-negative cells (P3) in the population / Fraction of P-gp-positive cells (P4) in the population: MES-SA/Dx5, single dose at IC20 (killing 80% of the cells), surviving population at 80% confluence, Calcein AM
# Protocol: One million P-gp-expressing MES-SA/Dx5 cells were plated in a T25 cell culture flask. After 24 hours the compound of interest was added directly to the cells at a concentration corresponding to the IC20 value (killing 80% of the cells). After 5 days the culture media was removed, the cells were washed with PBS and the culture medium was exchanged. Cells were monitored daily and the recovery was recorded. The medium was changed every 5 days until the confluence of the cells reached 80%. At 80% confluence the cells were removed by gentle trypsinization, counted by an automated cell counter and stained with Calcein AM, a cellular dye able to detect the function of P-gp (Homolya 1993). P-gp-positivity was evaluated based on the ability of P-gp-expressing cells to extrude Calcein AM.
# [7] = system: MES-SA/Dx5 cells; experiment: Sensitivity of MES-SA/Dx5 cells to doxorubicin after a single treatment; format: cell-based, human; details: after treatment with a single dose (FIG. 3)
# Source text: The above treatment with compounds of the general Formula I results in a new, stable phenotype, with the complete resensitization of cells to conventional chemotherapy consisting of P-glycoprotein substrates such as doxorubicin (FIG. 3).
# Curves show the sensitivity of MES-SA/Dx5 cells (P-gp overexpressing cell line established from MES-SA) to doxorubicin before and after treatment with a single dose of a state of the art compound (NSC693872) and two compounds relating to this invention (Example compounds No. 9 and No. 17). The sensitivity of MES-SA cells is shown as a reference (P-gp-negative parental cell line). […] (Values indicate the IC50 values (μM) derived from the cytotoxicity curves).
# [8] = system: primary cells from doxorubicin resistant brca1-/-/p53-/- spontaneous mouse mammary carcinoma; experiment: Calcein assay of functional P-gp in primary tumor cells from doxorubicin resistant mammary carcinoma; format: cell-based; details: single treatment, calcein assay (FIG. 4D)
# Source text: Tumor pieces derived from Brca1−/−;p53−/− FVB mouse mammary tumors were transplanted orthotopically into the mammary fat pad of wild type FVB mice.
# As described by Rottenberg et al. (Pajic et al. 2009), treatment with several cycles of the maximum tolerable dose of doxorubicin invariably lead to drug resistance mediated by the moderate upregulation of Mdr1a and/or Mdr1b (FIG. 4A). Primary cultures from resistant tumors were established. In just 10 passages the culture was depleted of stromal components (FIG. 4B).
# Functional expression of P-gp in the primary cells was evaluated by the calcein assay.
# [9] = system: A431 and A431-B1 cell lines; experiment: Selective toxicity in A431 and A431-B1 cell lines; format: cell-based, human; details: A431 versus P-gp-transfected A431-B1
# Protocol: as §2, §3, §4
# [10] = system: ABCB1-overexpressing and parental HEK293 cells; details: cited from earlier work
# [11] = WO2010138686 and Türk et al. 2009; cited from earlier work
# [12] = MES-SA/Dx5 (Table 2b), read-out: IC50 (μM) Dx5
# [13] = Mes-sa/Dx5 cell line, PrestoBlue assay, 72 hours (Table 1), read-out: IC50
# [14] = multidrug-resistant MES-SA/Dx5 cell line (Table 2a), read-out: IC50 (nM) in MES-SA/Dx5 cell line
# [15] = MES-SA / MES-SA/Dx5, without tariquidar (Table 5)
SMILES,"IC50 [1, 12] [µM]","IC50 [1, 13] [µM]","IC50 [1, 14] [µM]",IC50 [2] [nM],SR ([3]; MES-SA / MES-SA/Dx5 (Table 2b)),"SR [3, 15]",Selectivity Ratio (SR) (MDCK II/MDCK II B1) [4],SR (TQ) [5],Fraction of P-gp-negative cells (P3) in the population [6] [%],Fraction of P-gp-positive cells (P4) in the population [6] [%],Resensitization of MES-SA/Dx5 cells to doxorubicin [7],P-gp efflux capacity of primary tumor cells [8],melting point [°C],Selectivity Ratio (SR) (A431/A431-B1) [9],Selective toxicity in the presence of P-gp inhibitors ([5]; tariquidar),"Loss of P-gp expression in MES-SA/Dx5 cells ([6]; single treatment (FIG. 1, Table 6))",selectivity [10],selectivity [11]
"COc1ccc(CNCc2cc(Br)c3cccnc3c2O)c(OC)c1 [Example 9, 5-Bromo-7-(((2,4-dimethoxybenzyl)amino)methyl)quinolin-8-ol]",0.12,0.118,0.118,2260,20.4,20.4,16.8,1.8,99.0,1.0,sufficient to resensitize MES-SA/Dx5 cells to doxorubicin,efflux capacity of the cells could be eradicated by a single treatment,146 to 148,,,,,
"Cl.Oc1c(CN2CCCC2)ccc2cccnc12 [NSC693871, 7-(pyrrolidin-1-ylmethyl)quinolin-8-ol hydrochloride, reference compound]",1.47,1.47,1.47,6250,4.2,4.2,4.4,1.4,9.1,90.9,,,,3.8,retain a partial selective toxicity,insignificant loss,~10,about 8.48
